Measurements as given in patent publication US20160193299A1, “MODIFIED NUCLEOSIDE, NUCLEOTIDE, AND NUCLEIC ACID COMPOSITIONS” (Moderna Therapeutics, Inc., priority 2011, published 2016).

Legend:
HeLa cells = test: Chemical modifications on luciferase mRNA, HeLa transfection (RLU); format: cell-based; conditions: 83 ng luciferase mRNA, 18 to 22 hours
Protocol: The day before transfection, 20,000 HeLa cells (ATCC no. CCL-2; Manassas, Va.) were harvested by treatment with Trypsin-EDTA solution (Life Technologies, Grand Island, N.Y.) and seeded in a total volume of 100 ul EMEM medium (supplemented with 10% FCS and 1× Glutamax) per well in a 96-well cell culture plate (Corning, Manassas, Va.). The cells were grown at 37° C. in 5% CO2 atmosphere overnight. […] Lipofectamine 2000 (LifeTechnologies, Grand Island, N.Y.) was used as transfection reagent and 0.2 ul were diluted in 10 ul final volume of OPTI-MEM. After 5 minutes of incubation at room temperature, both solutions were combined and incubated an additional 15 minute at room temperature. Then the 20 ul combined solution was added to the 100 ul cell culture medium containing the HeLa cells and incubated at room temperature.
After 18 to 22 hours of incubation cells expressing luciferase were lysed with 100 ul of Passive Lysis Buffer (Promega, Madison, Wis.) according to manufacturer instructions. Aliquots of the lysates were transferred to white opaque polystyrene 96-well plates (Corning, Manassas, Va.) and combined with 100 ul complete luciferase assay solution (Promega, Madison, Wis.). […] The plate reader was a BioTek Synergy H1 (BioTek, Winooski, Vt.). The background signal of the plates without reagent was about 200 relative light units per well.

Balb-C mice [1] = test: Lipoplex study, whole-body flux (Table 129); format: in vivo, mouse; conditions: lipoplexed luciferase mRNA, 0.10 mg/kg
Protocol: (§1) The formulation was administered intravenously (I.V.), intramuscularly (I.M.) or subcutaneously (S.C.) to Balb-C mice at a dose of 0.10 mg/kg.
(§2) Twenty minutes prior to imaging, mice were injected intraperitoneally with a D-luciferin solution at 150 mg/kg. Animals were then anesthetized and images were acquired with an IVIS Lumina II imaging system (Perkin Elmer). Bioluminescence was measured as total flux (photons/second) of the entire mouse. The mice were imaged at 8 hours, 24 hours and 48 hours after dosing and the average total flux (photons/second) was measured for each route of administration and chemical modification. The background signal was about 3.91E+05 p/s. Organs were imaged at 6 hours and the average total flux (photons/second) was measured for the liver, spleen, lung and kidney. A control for each organ was also analyzed.

[2] = system: liver, spleen, lung and kidney; test: Lipoplex study, organ flux at 6 hours (Table 130); format: in vivo, mouse; conditions: lipoplexed luciferase mRNA, 0.10 mg/kg
Protocol: as §1, §2

Balb-C mice [3] = test: Intramuscular and subcutaneous administration of modified luciferase mRNA in PBS (whole-body flux); format: in vivo, mouse
Protocol: The mice were imaged at 2 hours, 8 hours, 24 hours, 48 hours, 72 hours, 96 hours, 120 hours and 144 hours for intramuscular delivery and 2 hours, 8 hours, 24 hours, 48 hours, 72 hours, 96 hours and 120 hours for subcutaneous delivery. Twenty minutes prior to imaging, mice were injected intraperitoneally with a D-luciferin solution at 150 mg/kg. Animals were then anesthetized and images were acquired with an IVIS Lumina II imaging system (Perkin Elmer). Bioluminescence was measured as total flux (photons/second) of the entire mouse. The average total flux (photons/second) for intramuscular administration is shown in Table 113 and the average total flux (photons/second) for subcutaneous administration is shown in Table 114. The background signal was 3.79E+05 (p/s). The peak expression for intramuscular administration was seen between 24 and 48 hours for all chemistry and expression was still detected at 144 hours.

HEK293A = test: Example 44 signal sequence exchange study, secreted G-CSF ELISA; format: cell-based, human; conditions: 293A, 250 ng modified mRNA, supernatant after 24 hrs
Description: (§3) These variants included the G-CSF constructs encoding either the wild-type N terminal secretory signal peptide sequence ([…]; SEQ ID NO: 21), no secretory signal peptide sequence, or secretory signal peptide sequences taken from other mRNAs. These included sequences where the wild type GCSF signal peptide sequence was replaced with the signal peptide sequence of either: human α-1-anti trypsin (AAT) ([…]; SEQ ID NO: 22), human Factor IX (FIX) ([…]; SEQ ID NO: 23), human Prolactin (Prolac) ([…]; SEQ ID NO: 24), or human Albumin (Alb) ([…]; SEQ ID NO: 25).
(§4) 250 ng of modified mRNA encoding each G-CSF variant was transfected into HEK293A (293A in the table), mouse myoblast (MM in the table) (C2C12, CRL-1772, ATCC) and rat myoblast (RM in the table) (L6 line, CRL-1458, ATCC) cell lines in a 24 well plate using 1 ul of Lipofectamine 2000 (Life Technologies), each well containing 300,000 cells. […] The data shown in Table 68 reveal that cells transfected with G-CSF mmRNA encoding the Albumin signal peptide secrete at least 12 fold more G-CSF protein than its wild type counterpart.

mouse myoblast (C2C12) = test: as above; format: cell-based; conditions: MM, 250 ng modified mRNA, supernatant after 24 hrs
Description: as §3, §4

rat myoblast (L6 line) = test: as above; format: cell-based; conditions: RM, 250 ng modified mRNA, supernatant after 24 hrs
Description: as §3, §4

Factor IX [4] = test: Example 39 in vivo study of Factor IX mmRNA IM, serum Factor IX; conditions: mice IM, 2×100 ug/mouse, 13 hours
Protocol: Human Factor IX mmRNA (Gen1; fully modified 5-methycytosine and pseudouridine) formulated in formulation buffer was delivered to mice via intramuscular injection.
The mice were bled at 13 hours after the intramuscular injection to determine the concentration of human the polypeptide in serum in pg/mL.

Factor IX [5] = test: Example 16 lipid nanoparticle in vivo study, serum Factor IX ELISA; design: species or system mice
Protocol: Mice were sacrificed at 8 hrs after dosing. […] Protein expression was determined by ELISA.
As used in Table 30, the symbol “˜” means about.

Substance: 5mC/pU: Luciferase mRNA SEQ ID NO: 16, polyA about 140, fully modified with 5-methylcytosine and pseudouridine
- RLU (HeLa cells): 1601234 RLU
- Flux (Balb-C mice [1]; I.M., 8 hrs): 1.90E+06 p/s
- Flux (Balb-C mice [1]; I.M., 24 hrs): 9.33E+05 p/s
- Flux (Balb-C mice [1]; I.M., 48 hrs): 8.51E+05 p/s
- Flux (Balb-C mice [1]; I.V., 8 hrs, background about 3.91E+05 p/s): 5.76E+06 p/s
- Flux (Balb-C mice [1]; I.V., 24 hrs): 1.02E+06 p/s
- Flux (Balb-C mice [1]; I.V., 48 hrs): 4.53E+05 p/s
- Flux (Balb-C mice [1]; S.C., 8 hrs): 2.85E+06 p/s
- Flux (Balb-C mice [1]; S.C., 24 hrs): 6.66E+05 p/s
- Flux (Balb-C mice [1]; S.C., 48 hrs): 3.24E+05 p/s
- Inj. Site Flux ([2]; I.M.): 1.15E+06 p/s
- Kidney Flux ([2]; I.M.): 1.44E+04 p/s
- Liver Flux ([2]; I.M.): 2.46E+04 p/s
- Lung Flux ([2]; I.M.): 1.50E+04 p/s
- Spleen Flux ([2]; I.M.): 1.38E+04 p/s
- Kidney Flux ([2]; I.V.): 1.77E+04 p/s
- Liver Flux ([2]; I.V.): 5.26E+05 p/s
- Lung Flux ([2]; I.V.): 4.28E+06 p/s
- Spleen Flux ([2]; I.V.): 2.04E+07 p/s
- Inj. Site Flux ([2]; S.C.): 4.46E+04 p/s
- Kidney Flux ([2]; S.C.): 1.69E+04 p/s
- Liver Flux ([2]; S.C.): 1.55E+04 p/s
- Lung Flux ([2]; S.C.): 1.45E+04 p/s
- Spleen Flux ([2]; S.C.): 1.67E+04 p/s
- Flux (Balb-C mice [3]; Balb-C mice, intramuscular 2.5 mg/kg in PBS, 2 hours): 1.98E+07 p/s
- Flux (Balb-C mice [3]; Balb-C mice, subcutaneous 2.5 mg/kg in PBS, 2 hours): 5.26E+06 p/s
- Flux (Balb-C mice [3]; intramuscular 2.5 mg/kg, 8 hours): 1.42E+07 p/s
- Flux (Balb-C mice [3]; intramuscular 2.5 mg/kg, 24 hours): 2.92E+07 p/s
- Flux (Balb-C mice [3]; intramuscular 2.5 mg/kg, 48 hours): 2.64E+07 p/s
- Flux (Balb-C mice [3]; intramuscular 2.5 mg/kg, 72 hours): 2.18E+07 p/s
- Flux (Balb-C mice [3]; intramuscular 2.5 mg/kg, 96 hours): 2.75E+07 p/s
- Flux (Balb-C mice [3]; intramuscular 2.5 mg/kg, 120 hours): 2.19E+07 p/s
- Flux (Balb-C mice [3]; intramuscular 2.5 mg/kg, 144 hours): 9.17E+06 p/s
- Flux (Balb-C mice [3]; subcutaneous 2.5 mg/kg, 8 hours): 2.32E+06 p/s
- Flux (Balb-C mice [3]; subcutaneous 2.5 mg/kg, 24 hours): 2.67E+06 p/s
- Flux (Balb-C mice [3]; subcutaneous 2.5 mg/kg, 48 hours): 1.22E+06 p/s
- Flux (Balb-C mice [3]; subcutaneous 2.5 mg/kg, 72 hours): 1.12E+06 p/s
- Flux (Balb-C mice [3]; subcutaneous 2.5 mg/kg, 96 hours): 5.16E+05 p/s
- Flux (Balb-C mice [3]; subcutaneous 2.5 mg/kg, 120 hours): 3.80E+05 p/s

Substance: Factor IX: human Factor IX mRNA SEQ ID NO: 10, polyA ~160 nt, Cap1, fully modified with 5-methylcytosine and pseudouridine
- secreted G-CSF protein (HEK293A): 11675 pg/mL
- secreted G-CSF protein (mouse myoblast (C2C12)): 6175 pg/mL
- secreted G-CSF protein (rat myoblast (L6 line)): 11675 pg/mL
- Factor IX in serum (Factor IX [4]): 1600 pg/mL
- Factor IX Serum Concentration 8-12 hours after administration (Factor IX [5]; IM, 2 × 100 ug): ~1.6 ng/mL
- Factor IX Serum Concentration 8-12 hours after administration (Factor IX [5]; IV (LNP), 1 ug): ~40 ng/mL
- Factor IX Serum Concentration 8-12 hours after administration (Factor IX [5]; IV (LNP), 10 ug): ~400 ng/mL
- Factor IX Serum Concentration 8-12 hours after administration (Factor IX [5]; IV (LNP), 100 ug): ~3,000-10,000 ng/ml
- Factor IX Protein Expression, Conc (Factor IX [5]; mice IV LNP, 10 ug, serum 8 hrs): 383.04 ng/mL
- Factor IX Protein Expression, Conc (Factor IX [5]; mice IV LNP, 100 ug, serum 8 hrs, dilution 50x): 3247.75 ng/mL
- Factor IX Protein Expression, Conc (Factor IX [5]; mice IV LNP, 100 ug, serum 8 hrs, dilution 250x): 11177.20 ng/mL
- Factor IX protein expression (Factor IX [5]; mice IV LNP, 100 ug, serum 8 hrs, range given in text): 3000 to 11000 ng/mL
